Reference: PMC9814918, “Rapid optimisation of fragments and hits to lead compounds from screening of crude reaction mixtures” (Communications Chemistry, 2020)
pKd: −log10 of the molar value. Where two headings read alike, the source gives them in different places.

Experiments:
Hsp90 [1] = biological target: T1, Hsp90 (Homo sapiens, UniProt P07900); experiment: SPR off-rate (koff) of crude reaction mixtures and starting materials; type: binding; settings: 25 °C
T1 construct: N-terminal domain of human Hsp90α (residues 1–236); made in house; host or cells: BL21 cells (E. coli)
Procedure: (§1) The off-rate or koff for dissociation of each of the 83 CRMs from Hsp90 and PDHK2 was measured in duplicate by SPR and is shown in Supplementary Table 1. Failure to obtain a koff value for some CRMs (not determined, ND) was due to poor signal and was most marked for PDHK2.
(§2) Both proteins (human PDHK2 (residues 16–407) and N-terminal domain of human Hsp90α (residues 1–236)) were expressed as an N-terminal His tag fusion protein with a TEV protease cleavage in BL21 cells and purified on a Ni^2+ affinity followed by size-exclusion column, details as previously described[13],[27]. Uncleaved His-tagged variants were used in SPR experiments; tags were removed for crystallisation.
(§3) SPR experiments were conducted on T200 and T100 BIAcore instruments (GE Healthcare) at 25 °C. The His-tagged proteins were immobilised on a series of S NTA chips, and the running buffer with 10 mM HEPES, pH 7.4, 150 mM NaCl, 0.05% P-20, 0.025 mM EDTA and 1% DMSO was used. The sensor surface was regenerated between cycles to eliminate any carryover of protein and/or analyte. Details are as described previously.

PDHK2 [2] = biological target: T2, PDHK2 (Homo sapiens, UniProt Q15119); experiment: as above; type: binding
T2 construct: human PDHK2 (residues 16–407); His tag with TEV protease cleavage site (N, cleaved yes); made in house; host or cells: BL21 cells (E. coli)
Procedure: as §1, §2, §3

Hsp90 [3] = biological target: T1, Hsp90; experiment: KD by SPR titration of purified compounds; type: binding; settings: purified product of the CRM, 25 °C, average of at least two determinations, read-out: KD (SPR) (µM) of pure
Source text: Table 3 summarises for each of the purified compounds from these nine CRMs, the results of a manual soaking of the purified compound or the CRM into Hsp90 crystals, and the measurement for the purified compounds of solubility and KD measured by both SPR titration and by isothermal titration calorimetry (ITC). […] This leaves anomalies for seven CRMs that gave SM. One of these had low solubility (CRM 75), leaving six CRMs giving SM on repeated manual soaking to explain.
as §3

Hsp90 [4] = biological target: T1, Hsp90; experiment: Isothermal titration calorimetry; settings: read-out: KD measured by ITC for binding to Hsp90
Procedure: ITC experiments were conducted at 25 °C by titration of a stock sample of 100 µM compound onto a solution of 10 µM Hsp90 in a GE ITC200 instrument.

PDHK2 [5] = biological target: T2, PDHK2; experiment: Soak of purified enantiomers into PDHK2 crystals; type: binding; settings: 2 days, 2 mM
Procedure: CRM number 11 is a racemate of two enantiomers, 23 and 24. […] A PR was obtained for all three of the soaks of CRM number 11 in the full XChem screen that selected just the higher-affinity eutomer 23.
A final concentration of 2 mM of each of the 13 CRMs and 17 pure compounds was added into crystal drops of PDHK2 in triplicate for soak-time durations of 2–4 h, O/N and 2 days at 4 °C. In addition, the final compound concentrations of 0.5 mM and 1 mM were added into PDHK2 crystal drops in triplicate, which were subsequently left to soak for 2 days also at 4 °C. Glycerol was added as a cryoprotectant (at a final concentration of 20%) by ECHO acoustic transfer shortly before mounting the crystals in cryo-cooled pucks. All data were collected on beamline I04-1 in automated mode and autoprocessed using xia2[23].

PDHK2 [6] = biological target: T2, PDHK2; experiment: FP assay; type: binding; settings: PDHK2, purified enantiomer; read-out: Kd determined by FP assay
[7] = Hsp90, SPR, CRM (SM1, SM2: starting material), read-out: koff CRM

| Structure (SMILES) | koff (Hsp90 [1]; [7]) [s⁻¹] | koff (PDHK2 [2]; read-out: koff for PDHK2) [s⁻¹] | Kd (Hsp90 [3]) [µM] | pKd (Hsp90 [4]) | koff (Hsp90 [1]; SPR, CRM unpurified (SM1/SM2 head lines: starting material), duplicate, 1 given to all koff >= 1 sec-1 (limit of assay sensitivity), read-out: koff s-1 Hsp90) [s⁻¹] | koff (PDHK2 [2]; CRM unpurified (SM1/SM2 head lines: starting material), duplicate, 25 °C, 1 given to all koff >= 1 sec-1 (limit of assay sensitivity), read-out: koff s-1 PDHK2) [s⁻¹] | crystal structure from soak of purified enantiomer into PDHK2 crystals (PDHK2 [5]) | pKd (PDHK2 [6]) |
| --- | --- | --- | --- | --- | --- | --- | --- | --- |
| CN(C(=O)c1ccc(O)cc1O)c1ccc(C(N)=O)cc1 [SM2] | 0.2 | 0.083 | 2 | – | – | – | – | – |
| NC(=O)c1ccc(O)cc1O [SM1] | > 1 | > 1 | 2000 | 2.70 | ≥ 1 | ≥ 1 | – | – |
| COc1cc2c(cc1OC)[C@H](c1cccnc1)N(C(=O)c1ccc(O)cc1O)CC2 [Compound 23] | – | – | – | – | – | – | structures were obtained | 6.85 |
| COc1cc2c(cc1OC)[C@@H](c1cccnc1)N(C(=O)c1ccc(O)cc1O)CC2 [Compound 24] | – | – | – | – | – | – | structures were obtained | 4.77 |
